Source: ChEMBL document CHEMBL1146387, “A new class of anti-MRSA and anti-VRE agents: preparation and antibacterial activities of indole-containing compounds” (2007)
In brackets after ≈: the same amount, converted by molar mass.

Legend:
Format in all cases: functional
Enterococcus faecium [1] = experiment: Antibacterial activity against vancomycin-resistant Enterococcus faecium VRA
Staphylococcus aureus [2] = experiment: Antibacterial activity against methicillin-susceptible Staphylococcus aureus 209P
Staphylococcus aureus [3] = experiment: Antibacterial activity against methicillin-resistant Staphylococcus aureus MF535
Enterococcus faecium [4] = experiment: Antibacterial activity against Enterococcus faecium ATCC 19434

| SMILES | MIC (Enterococcus faecium [1]) [µg/mL] | MIC (Staphylococcus aureus [2]) [µg/mL] | MIC (Staphylococcus aureus [3]) [µg/mL] | MIC (Enterococcus faecium [4]) [µg/mL] |
| --- | --- | --- | --- | --- |
| Cn1c(=O)c(C(c2cccc(Br)c2)c2[nH]c3ccccc3c2CCOC(=O)Cc2ccccc2)c(O)c2ccccc21 (configuration not stated) | > 128 | 64 (≈ 103 µM) | > 128 | > 128 |
| O=C(OCCc1c(C(c2ccc(OC(F)(F)F)cc2)c2c(O)c3cc(Cl)ccc3oc2=O)[nH]c2ccccc12)c1ccccc1 (configuration not stated) | 1 (≈ 1.58 µM) | 2 (≈ 3.15 µM) | 2 (≈ 3.15 µM) | 1 (≈ 1.58 µM) |
| Cn1c(=O)c(C(c2ccc(OC(F)(F)F)cc2)c2[nH]c3ccccc3c2CCNC(=O)c2ccccc2)c(O)c2ccccc21 (configuration not stated) | > 128 | 8 (≈ 13.1 µM) | 128 (≈ 209 µM) | > 128 |
| Cc1cccc(C(c2[nH]c3ccccc3c2CCOC(=O)c2ccccc2)c2c(O)c3ccccc3oc2=O)c1 (configuration not stated) | 4 (≈ 7.55 µM) | 8 (≈ 15.1 µM) | 8 (≈ 15.1 µM) | 8 (≈ 15.1 µM) |
| Cn1c(=O)c(C(c2ccc(C(F)(F)F)cc2)c2[nH]c3ccccc3c2CCOC(=O)C2CCCCC2)c(O)c2ccccc21 (configuration not stated) | 1 (≈ 1.66 µM) | 1 (≈ 1.66 µM) | 1 (≈ 1.66 µM) | 2 (≈ 3.32 µM) |
| COc1ccccc1C(=O)OCCc1c(C(c2cncc(Br)c2)c2c(O)c3ccccc3oc2=O)[nH]c2ccccc12 (configuration not stated) | 128 (≈ 205 µM) | 64 (≈ 102 µM) | 128 (≈ 205 µM) | 128 (≈ 205 µM) |
| O=C(OCCc1c(C(c2cccc(C(F)(F)F)c2)c2c(O)c3ccccc3oc2=O)[nH]c2ccccc12)c1ccccc1 (configuration not stated) | 1 (≈ 1.71 µM) | 4 (≈ 6.85 µM) | 4 (≈ 6.85 µM) | 2 (≈ 3.43 µM) |
| O=C(OCCc1c(C(c2cccc(F)c2)c2c(O)c3ccccc3oc2=O)[nH]c2ccccc12)c1ccccc1 (configuration not stated) | 8 (≈ 15 µM) | 4 (≈ 7.5 µM) | 8 (≈ 15 µM) | 8 (≈ 15 µM) |
| O=C(OCCc1c(C(c2ccc(C(F)(F)F)cc2)c2c(O)c3ccccc3oc2=O)[nH]c2ccccc12)c1ccccc1 (configuration not stated) | 2 (≈ 3.43 µM) | 2 (≈ 3.43 µM) | 2 (≈ 3.43 µM) | 2 (≈ 3.43 µM) |
| COc1ccccc1C(=O)OCCc1c(C(c2cccc(Br)c2)c2c(O)cc(C)oc2=O)[nH]c2ccccc12 (configuration not stated) | 64 (≈ 109 µM) | 32 (≈ 54.4 µM) | 64 (≈ 109 µM) | 64 (≈ 109 µM) |
| Cn1c(=O)c(C(c2cccc(Br)c2)c2[nH]c3ccccc3c2CCOC(=O)c2ccccc2)c(O)c2ccccc21 (configuration not stated) | > 128 | 1 (≈ 1.65 µM) | 2 (≈ 3.29 µM) | > 128 |
| Cn1c(=O)c(C(c2ccc(OC(F)(F)F)cc2)c2[nH]c3ccccc3c2CCOC(=O)c2ccccc2)c(O)c2ccccc21 (configuration not stated) | > 128 | 0.5 (≈ 0.816 µM) | 1 (≈ 1.63 µM) | > 128 |
| O=C(OCCc1c(C(c2cccc(Br)c2)c2c(O)c3ccccc3oc2=O)[nH]c2ccccc12)c1ccccc1 (configuration not stated) | 4 (≈ 6.73 µM) | 4 (≈ 6.73 µM) | 4 (≈ 6.73 µM) | 4 (≈ 6.73 µM) |
| O=C(OCCc1c(C(c2ccc(OC(F)(F)F)cc2)c2c(O)c3ccccc3oc2=O)[nH]c2ccccc12)c1ccccc1 (configuration not stated) | 0.5 (≈ 0.834 µM) | 2 (≈ 3.34 µM) | 2 (≈ 3.34 µM) | 0.5 (≈ 0.834 µM) |
| O=C(OCCc1c(C(c2ccc(Br)cc2)c2c(O)c3ccccc3oc2=O)[nH]c2ccccc12)c1ccccc1 (configuration not stated) | 2 (≈ 3.36 µM) | 2 (≈ 3.36 µM) | 2 (≈ 3.36 µM) | 2 (≈ 3.36 µM) |
| COc1ccccc1C(=O)OCCc1c(C(c2cccc(Br)c2)c2c(O)c3ccccc3oc2=O)[nH]c2ccccc12 (configuration not stated) | 8 (≈ 12.8 µM) | 4 (≈ 6.41 µM) | 8 (≈ 12.8 µM) | 8 (≈ 12.8 µM) |
| CC(=O)OCCc1c(C(c2cccc(Br)c2)c2c(O)c3ccccc3oc2=O)[nH]c2ccccc12 (configuration not stated) | 32 (≈ 60.1 µM) | 32 (≈ 60.1 µM) | 32 (≈ 60.1 µM) | 64 (≈ 120 µM) |
| COc1ccccc1C(=O)OCCc1c(C(c2cccc(Br)c2)c2c(O)c3ccccc3n(C)c2=O)[nH]c2ccccc12 (configuration not stated) | > 128 | > 128 | > 128 | > 128 |

| SMILES | MIC (Enterococcus faecium [1]) [µg/mL] | MIC (Staphylococcus aureus [2]) [µg/mL] | MIC (Staphylococcus aureus [3]) [µg/mL] | MIC (Enterococcus faecium [4]) [µg/mL] |
| --- | --- | --- | --- | --- |
| Cn1c(=O)c(C(c2ccc(OC(F)(F)F)cc2)c2[nH]c3ccccc3c2CCOC(=O)C2CCCCC2)c(O)c2ccccc21 (configuration not stated) | 2 (≈ 3.23 µM) | 1 (≈ 1.62 µM) | 1 (≈ 1.62 µM) | 2 (≈ 3.23 µM) |
| Cn1c(=O)c(C(c2ccc(OC(F)(F)F)cc2)c2[nH]c3ccccc3c2CCOC(=O)Cc2ccccc2)c(O)c2ccccc21 (configuration not stated) | 2 (≈ 3.19 µM) | 1 (≈ 1.6 µM) | 1 (≈ 1.6 µM) | 32 (≈ 51.1 µM) |
| Cn1c(=O)c(C(c2ccc(C(F)(F)F)cc2)c2[nH]c3ccccc3c2CCNS(=O)(=O)c2ccccc2)c(O)c2ccccc21 (configuration not stated) | 2 (≈ 3.17 µM) | 1 (≈ 1.58 µM) | 1 (≈ 1.58 µM) | 4 (≈ 6.33 µM) |
| O=C(OCCc1c(C(c2ccccc2)c2c(O)c3ccccc3oc2=O)[nH]c2ccccc12)c1ccccc1 (configuration not stated) | 16 (≈ 31 µM) | 8 (≈ 15.5 µM) | 8 (≈ 15.5 µM) | 16 (≈ 31 µM) |
| CN(C(=O)NCCc1c(C(c2ccc(C(F)(F)F)cc2)c2c(O)c3ccccc3n(C)c2=O)[nH]c2ccccc12)c1ccccc1 (configuration not stated) | 1 (≈ 1.6 µM) | 1 (≈ 1.6 µM) | 1 (≈ 1.6 µM) | 2 (≈ 3.2 µM) |
| COc1ccccc1C(=O)NCCc1c(C(c2cccc(Br)c2)c2c(O)c3ccccc3oc2=O)[nH]c2ccccc12 (configuration not stated) | 32 (≈ 51.3 µM) | 8 (≈ 12.8 µM) | 16 (≈ 25.7 µM) | 32 (≈ 51.3 µM) |
| CSc1ccc(C(c2[nH]c3ccccc3c2CCOC(=O)c2ccccc2)c2c(O)c3ccccc3oc2=O)cc1 (configuration not stated) | 4 (≈ 7.12 µM) | 4 (≈ 7.12 µM) | 8 (≈ 14.2 µM) | 4 (≈ 7.12 µM) |
| Cn1c(=O)c(C(c2ccc(C(F)(F)F)cc2)c2[nH]c3ccccc3c2CCOC(=O)Cc2ccccc2)c(O)c2ccccc21 (configuration not stated) | > 128 | 1 (≈ 1.64 µM) | 1 (≈ 1.64 µM) | > 128 |
| CC(=O)OCCc1c(C(c2cccc(Br)c2)c2c(O)c3ccccc3n(C)c2=O)[nH]c2ccccc12 (configuration not stated) | 32 (≈ 58.7 µM) | 16 (≈ 29.3 µM) | 16 (≈ 29.3 µM) | 64 (≈ 117 µM) |
| CC(=O)NCCc1c(C(c2cccc(Br)c2)c2c(O)c3ccccc3n(C)c2=O)[nH]c2ccccc12 (configuration not stated) | > 128 | 32 (≈ 58.8 µM) | 32 (≈ 58.8 µM) | > 128 |
| Cn1c(=O)c(C(c2ccc(C(F)(F)F)cc2)c2[nH]c3ccccc3c2CCOC(=O)c2ccccc2)c(O)c2ccccc21 (configuration not stated) | 8 (≈ 13.4 µM) | 0.5 (≈ 0.838 µM) | 1 (≈ 1.68 µM) | 8 (≈ 13.4 µM) |
| CC(=O)NCCc1c(C(c2cccc(Br)c2)c2c(O)c3ccccc3oc2=O)[nH]c2ccccc12 (configuration not stated) | > 128 | > 128 | > 128 | > 128 |
| CC(=O)NC[C@H]1CN(c2ccc(N3CCOCC3)c(F)c2)C(=O)O1 [LINEZOLID] | 2 (≈ 5.93 µM) | 1 (≈ 2.96 µM) | 1 (≈ 2.96 µM) | 2 (≈ 5.93 µM) |
| COc1ccc(C(c2[nH]c3ccccc3c2CCOC(=O)c2ccccc2)c2c(O)c3ccccc3oc2=O)cc1 (configuration not stated) | 16 (≈ 29.3 µM) | 8 (≈ 14.7 µM) | 8 (≈ 14.7 µM) | 16 (≈ 29.3 µM) |
| CN[C@H](CC(C)C)C(=O)N[C@H]1C(=O)N[C@@H](CC(N)=O)C(=O)N[C@H]2C(=O)N[C@H]3C(=O)N[C@H](C(=O)N[C@H](C(=O)O)c4cc(O)cc(O)c4-c4cc3ccc4O)[C@H](O)c3ccc(c(Cl)c3)Oc3cc2cc(c3O[C@@H]2O[C@H](CO)[C@@H](O)[C@H](O)[C@H]2O[C@H]2C[C@](C)(N)[C@H](O)[C@H](C)O2)Oc2ccc(cc2Cl)[C@H]1O [VANCOMYCIN] | > 128 |  |  |  |
| Cc1ccc(C(c2[nH]c3ccccc3c2CCOC(=O)c2ccccc2)c2c(O)c3ccccc3oc2=O)cc1 (configuration not stated) | 8 (≈ 15.1 µM) | 4 (≈ 7.55 µM) | 4 (≈ 7.55 µM) | 8 (≈ 15.1 µM) |
| Cn1c(=O)c(C(c2ccc(C(F)(F)F)cc2)c2[nH]c3ccccc3c2CCNC(=O)c2ccccc2)c(O)c2ccccc21 (configuration not stated) | 16 (≈ 26.9 µM) | 8 (≈ 13.4 µM) | 16 (≈ 26.9 µM) | 16 (≈ 26.9 µM) |
